Converted amounts (≈) assume the structure as drawn.

In one assay the test system is WT Mtb Erdman. Description: Disk zone of inhibition assay. It counts as cell-based. Conditions: Mycobacterium tuberculosis, 240 h, radius of zone absent of bacterial growth, 5 μl of 100 mM stock in DMSO on disk, Middlebrook 7H10 agar, 10 days at 37° C.
In a further assay the test system is WT Mtb Erdman strain. The assay can be described thus: Microplate Alamar Blue Assay (MABA). It counts as cell-based. As to conditions: Mycobacterium tuberculosis, Middlebrook 7H9 media, 7 days at 37° C., resazurin 24 hours; for MIC50: concentration that inhibits mycobacterial survival by 50%, read-out: MABA MIC50; for MIC90: concentration that inhibits mycobacterial survival by 90%, read-out: MABA MIC90.

In the case of `CCCCNc1nc(C)nc2sc3c(c12)CCCC3` [Example 0881, N-butyl-5-methyl-8-thia-4,6-diazatricyclo[7.4.0.0^2,^7]trideca-1(9),2,4,6-tetraen-3-amine], the zone of inhibition at 100000 µM (stock) in the assay with WT Mtb Erdman came to 7 mm. Moreover, in the assay with WT Mtb Erdman strain, the MIC50 worked out at 6.45 µM (≈ 1.78 µg/mL) and the MIC90 amounted to 13.4 µM (≈ 3.69 µg/mL).

As to `CCCCNc1nc(C)nc2c1oc1ccccc12` [Example 0927, N-butyl-4-methyl-8-oxa-3,5-diazatricyclo[7.4.0.0^2,^7]trideca-1(9),2(7),3,5,10,12-hexaen-6-amine], in the assay on WT Mtb Erdman, the zone of inhibition at 100000 µM (stock) was determined as 10 mm. For the same compound, in the assay on WT Mtb Erdman strain, the MIC50 is 1.77 µM (≈ 0.452 µg/mL) and the MIC90 was 4.02 µM (≈ 1.03 µg/mL).

As for `CCc1nc(NCCCO)c2cc(C)sc2n1` [Example 0936, 3-({2-ethyl-6-methylthieno[2,3-d]pyrimidin-4-yl}amino)propan-1-ol], in the assay with WT Mtb Erdman, the zone of inhibition at 100000 µM (stock) was 0.75 mm. For the same compound, in the assay with WT Mtb Erdman strain, the MIC50 was found to be 26 µM (≈ 6.54 µg/mL) and the MIC90 was 48.2 µM (≈ 12.1 µg/mL).

In turn, `CCc1nc(NCCCOC)c2cc(C)sc2n1` [Example 0941, 2-ethyl-N-(3-methoxypropyl)-6-methylthieno[2,3-d]pyrimidin-4-amine] returned a zone of inhibition at 100000 µM (stock) in the assay on WT Mtb Erdman of 4 mm. Moreover, in the assay with WT Mtb Erdman strain, the MIC50 is 7.79 µM (≈ 2.07 µg/mL) and the MIC90 worked out at 16.3 µM (≈ 4.33 µg/mL).

In the assay with WT Mtb Erdman, `CCc1nc(N2CCCCC2)c2cc(C)sc2n1` [Example 0942, 1-{2-ethyl-6-methylthieno[2,3-d]pyrimidin-4-yl}piperidine] showed a zone of inhibition at 100000 µM (stock) of 5 mm. In the assay with WT Mtb Erdman strain, the MIC50 worked out at 47.5 µM (≈ 12.4 µg/mL) and the MIC90 is more than 50 µM.

In turn, `CCc1nc(N(CC)CC)c2cc(C)sc2n1` [Example 0943, N,N,2-triethyl-6-methylthieno[2,3-d]pyrimidin-4-amine] had a zone of inhibition at 100000 µM (stock) in the assay with WT Mtb Erdman of 4 mm. For the same compound, in the assay with WT Mtb Erdman strain, the MIC50 is more than 50 µM and the MIC90 is more than 50 µM.

The compound `CCc1nc(NC2CC2)c2cc(C)sc2n1` [Example 0946, N-Cyclopropyl-2-ethyl-6-methylthieno[2,3-d]pyrimidin-4-amine] returned a zone of inhibition at 100000 µM (stock) in the assay with WT Mtb Erdman of 27 mm. Further, in the assay with WT Mtb Erdman strain, the MIC50 amounted to 0.633 µM (≈ 0.148 µg/mL) and the MIC90 turned out to be 2.04 µM (≈ 0.476 µg/mL).

With `CCc1nc(NCCOC)c2cc(C)sc2n1` [Example 0950, 2-ethyl-N-(2-methoxyethyl)-6-methylthieno[2,3-d]pyrimidin-4-amine], in the assay on WT Mtb Erdman, the zone of inhibition at 100000 µM (stock) turned out to be 0 mm. Also, in the assay on WT Mtb Erdman strain, the MIC50 amounted to 15.9 µM (≈ 4 µg/mL) and the MIC90 came to 28.4 µM (≈ 7.14 µg/mL).

Turning to `CCc1nc(NC2CCCC2)c2cc(C)sc2n1` [Example 0951, N-cyclopentyl-2-ethyl-6-methylthieno[2,3-d]pyrimidin-4-amine], the zone of inhibition at 100000 µM (stock) in the assay on WT Mtb Erdman was determined as 1 mm. Also, in the assay on WT Mtb Erdman strain, the MIC50 was more than 50 µM and the MIC90 was more than 50 µM.

In the assay with WT Mtb Erdman, `CCc1nc(NC2CCC2)c2cc(C)sc2n1` [Example 1019, N-Cyclobutyl-2-ethyl-6-methylthieno[2,3-d]pyrimidin-4-amine] had a zone of inhibition at 100000 µM (stock) of 10 mm. In addition, in the assay with WT Mtb Erdman strain, the MIC50 came to 11.1 µM (≈ 2.75 µg/mL) and the MIC90 was 26.4 µM (≈ 6.53 µg/mL).

`CCCCN(C)c1nc(CC)nc2sc(C)cc12` [Example 1021, N-Butyl-2-ethyl-N,6-dimethylthieno[2,3-d]pyrimidin-4-amine] yielded a zone of inhibition at 100000 µM (stock) in the assay on WT Mtb Erdman of 10 mm. In the assay on WT Mtb Erdman strain, the MIC50 stood at 3.93 µM (≈ 1.04 µg/mL) and the MIC90 turned out to be 9.81 µM (≈ 2.58 µg/mL).

In the assay with WT Mtb Erdman, `CCc1nc(NCCC(C)C)c2cc(C)sc2n1` [Example 1022, 2-Ethyl-6-methyl-N-(3-methylbutyl)thieno[2,3-d]pyrimidin-4-amine] registered a zone of inhibition at 100000 µM (stock) of 14 mm. In addition, in the assay on WT Mtb Erdman strain, the MIC50 was found to be 0.329 µM (≈ 0.0867 µg/mL) and the MIC90 stood at 0.96 µM (≈ 0.253 µg/mL).

In the assay on WT Mtb Erdman, `CCc1nc(N)c2cc(C)sc2n1` [Example 1060, 2-Ethyl-6-methyl-thieno[2,3-d]pyrimidin-4-amine] registered a zone of inhibition at 100000 µM (stock) of 0 mm. In addition, in the assay on WT Mtb Erdman strain, the MIC50 was 10 µM (≈ 1.93 µg/mL) and the MIC90 amounted to 17.2 µM (≈ 3.32 µg/mL).

As to `Cc1cc2c(NC3CC3)nc(C(C)C)nc2s1` [Example 1061, N-Cyclopropyl-2-isopropyl-6-methyl-thieno[2,3-d]pyrimidin-4-amine], the zone of inhibition at 100000 µM (stock) with WT Mtb Erdman came out at 19 mm. In the assay with WT Mtb Erdman strain, the MIC50 was 0.615 µM (≈ 0.152 µg/mL) and the MIC90 was determined as 1.28 µM (≈ 0.317 µg/mL).

Take `CCc1nc(NC(C)(C)C)c2cc(C)sc2n1` [Example 1069, N-tert-Butyl-2-ethyl-6-methyl-thieno[2,3-d]pyrimidin-4-amine]: the zone of inhibition at 100000 µM (stock) in the assay with WT Mtb Erdman was determined as 5 mm. In addition, in the assay on WT Mtb Erdman strain, the MIC50 is 30.9 µM (≈ 7.71 µg/mL) and the MIC90 was more than 50 µM.

With `CCc1nc(NCC(F)(F)F)c2cc(C)sc2n1` [Example 1072, 2-Ethyl-6-methyl-N-(2,2,2-trifluoroethyl)thieno[2,3-d]pyrimidin-4-amine], in the assay with WT Mtb Erdman, the zone of inhibition at 100000 µM (stock) came out at 9 mm. In addition, in the assay with WT Mtb Erdman strain, the MIC50 is 6.32 µM (≈ 1.74 µg/mL) and the MIC90 amounted to 19.2 µM (≈ 5.29 µg/mL).

In the assay with WT Mtb Erdman, `CCc1nc(NC2CC2)c2ccsc2n1` [Example 1074, N-Cyclopropyl-2-ethyl-thieno[2,3-d]pyrimidin-4-amine] gave a zone of inhibition at 100000 µM (stock) of 21 mm. Moreover, in the assay on WT Mtb Erdman strain, the MIC50 is 6.1 µM (≈ 1.34 µg/mL) and the MIC90 stood at 22.7 µM (≈ 4.98 µg/mL).

`CCc1nc(NCCCC(F)(F)F)c2ccsc2n1` [Example 1366, 2-Ethyl-N-(4,4,4-trifluorobutyl)thieno[2,3-d]pyrimidin-4-amine] had a zone of inhibition at 100000 µM (stock) in the assay on WT Mtb Erdman of 14 mm. Further, in the assay with WT Mtb Erdman strain, the MIC50 came to 0.00133 µM (≈ 0.000385 µg/mL) and the MIC90 is 0.00369 µM (≈ 0.00107 µg/mL).

With `FC(F)(F)c1nc(NC2CC2)c2ccsc2n1` [Example 1541, N-Cyclopropyl-2-(trifluoromethyl)thieno[2,3-d]pyrimidin-4-amine], the zone of inhibition at 100000 µM (stock) in the assay on WT Mtb Erdman came to 1.8 mm. In the assay with WT Mtb Erdman strain, the MIC50 is 36.8 µM (≈ 9.54 µg/mL) and the MIC90 was more than 50 µM.

As to `CCCCNc1nc(C(F)(F)F)nc2sccc12` [Example 1545, N-Butyl-2-(trifluoromethyl)thieno[2,3-d]pyrimidin-4-amine], the zone of inhibition at 100000 µM (stock) with WT Mtb Erdman is 1.8 mm. In addition, in the assay with WT Mtb Erdman strain, the MIC50 was 26.9 µM (≈ 7.41 µg/mL) and the MIC90 amounted to 30.5 µM (≈ 8.4 µg/mL).

Turning to `FC(F)(F)CCCNc1nc(C(F)(F)F)nc2sccc12` [Example 1548, N-(4,4,4-Trifluorobutyl)-2-(trifluoromethyl)thieno[2,3-d]pyrimidin-4-amine], in the assay on WT Mtb Erdman strain, the MIC50 was determined as 12.3 µM (≈ 4.05 µg/mL) and the MIC90 worked out at 13.7 µM (≈ 4.51 µg/mL).

In the case of `FC(F)(F)CCCNc1nc(C(F)(F)C(F)(F)F)nc2sccc12` [Example 1549, 2-(Perfluoroethyl)-N-(4,4,4-trifluorobutyl)thieno[2,3-d]pyrimidin-4-amine], in the assay with WT Mtb Erdman strain, the MIC50 was 22.3 µM (≈ 8.46 µg/mL) and the MIC90 stood at 24.2 µM (≈ 9.18 µg/mL).

As for `Cc1cc2c(NCCCC(F)(F)F)nc(C(F)(F)F)nc2s1` [Example 1551, 6-Methyl-N-(4,4,4-trifluorobutyl)-2-(trifluoromethyl)thieno[2,3-d]pyrimidin-4-amine], in the assay on WT Mtb Erdman strain, the MIC50 was found to be 0.846 µM (≈ 0.29 µg/mL) and the MIC90 amounted to 3.88 µM (≈ 1.33 µg/mL).

As to `CCc1nc(NCCCc2ccccc2)c2c(C)csc2n1` [Example 1698, 2-Ethyl-5-methyl-N-(3-phenylpropyl)thieno[2,3-d]pyrimidin-4-amine], in the assay with WT Mtb Erdman strain, the MIC50 is 0.515 µM (≈ 0.16 µg/mL) and the MIC90 is 3.67 µM (≈ 1.14 µg/mL).

For the compound `CCCCNc1nc(CC)nc2scc(C)c12` [Example 1699, N-Butyl-2-ethyl-5-methylthieno[2,3-d]pyrimidin-4-amine], in the assay on WT Mtb Erdman, the zone of inhibition at 100000 µM (stock) is 6 mm. Besides, in the assay on WT Mtb Erdman strain, the MIC50 came out at 35.5 µM (≈ 8.85 µg/mL) and the MIC90 worked out at 45.5 µM (≈ 11.3 µg/mL).

As for `CCc1nc(NCCCC(F)(F)F)c2c(C)csc2n1` [Example 1700, 2-Ethyl-5-methyl-N-(4,4,4-trifluorobutyl)thieno[2,3-d]pyrimidin-4-amine], in the assay on WT Mtb Erdman strain, the MIC50 was 26.8 µM (≈ 8.13 µg/mL) and the MIC90 came out at 30.7 µM (≈ 9.31 µg/mL).

In the case of `CCc1nc(NC2CC2)c2c(C)csc2n1` [Example 1701, N-Cyclopropyl-2-ethyl-5-methylthieno[2,3-d]pyrimidin-4-amine], the zone of inhibition at 100000 µM (stock) with WT Mtb Erdman worked out at 1.7 mm. Further, in the assay with WT Mtb Erdman strain, the MIC50 came out at 9.77 µM (≈ 2.28 µg/mL) and the MIC90 stood at 16.1 µM (≈ 3.76 µg/mL).

Regarding `Cc1cccc(-c2nc(NCCCc3ccccc3)c3c(C)csc3n2)n1` [Example 1709, 5-methyl-2-(6-methylpyridin-2-yl)-N-(3-phenylpropyl)thieno[2,3-d]pyrimidin-4-amine], in the assay on WT Mtb Erdman strain, the MIC50 was 2.56 µM (≈ 0.959 µg/mL) and the MIC90 is 19.7 µM (≈ 7.38 µg/mL).

Consider `Cc1cccc(-c2nc(NCCCC(F)(F)F)c3c(C)csc3n2)n1` [Example 1711, 5-methyl-2-(6-methylpyridin-2-yl)-N-(4,4,4-trifluorobutyl)thieno[2,3-d]pyrimidin-4-amine], for which, in the assay on WT Mtb Erdman strain, the MIC50 came to 6.48 µM (≈ 2.37 µg/mL) and the MIC90 was 19.4 µM (≈ 7.11 µg/mL).

These data come from patent US20220117968A1, “THIENO[2,3-D)PYRIMIDINES AND BENZOFURO(3,2-D)PYRIMIDINES AS ANTIMICROBIAL AGENTS” (Saint Louis University, priority 2017, published 2022).
